2 compounds from patent US20180172683A1, “METHODS FOR ANALYZING THE INTERACTION BETWEEN A TARGET PROTEIN AND A LIGAND” (UNIVERSITY OF SOUTHERN CALIFORNIA, priority 2015, published 2018) can be followed below.

Peptide text beside a SMILES is read from it. * marks the point of attachment. Biotin = O=C1N[C@H]2[C@H](CS[C@H]2CCCCC(=O)*)N1

The target of the experiment is T1, Bcl-xL (Homo sapiens, UniProt Q07817).
T1 construct: The gene for the first 209 amino acids of Bcl-xL; made in house; host or cells: E. coli BL21(DE3), pET24a vector
T1 sequence (Q07817 1-209 limits assumed): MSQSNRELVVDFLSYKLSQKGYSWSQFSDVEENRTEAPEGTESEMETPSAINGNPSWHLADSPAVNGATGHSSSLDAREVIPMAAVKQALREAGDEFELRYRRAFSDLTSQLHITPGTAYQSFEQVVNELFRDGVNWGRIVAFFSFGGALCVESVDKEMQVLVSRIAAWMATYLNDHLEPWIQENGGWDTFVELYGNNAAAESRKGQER
Put plainly: Equilibrium immunoassays (ELISA and AMMP data combined), Kd of ligands for Bcl-xL. It counts as binding. The settings on record: for Kd: Kd Determined Using Known [L]0, Monovalent equilibrium model, ELISA and AMMP data; for Kd / Ratio of Fit [L]0 to Known [L]0: mean ± standard error; for Ratio of Fit [L]0 to Known [L]0: simultaneous fit of Kd and [L]0. The method, then: Sample Preparation. A set of serially diluted Bcl-xL standards, at 2× the desired concentration, were made in sample buffer. For each ligand to be tested (such as peptide ligands), a set of dilutions at 2× the desired concentration was also prepared. The Bcl-xL samples were either mixed 1:1 with sample buffer (standards) or ligands (samples), and allowed to incubate at room temperature for 6 days. After the incubation, the standards and samples were analyzed using ELISA or the ViBE BioAnalyzer (FIG. 1).
ELISA Assays. ELISA plates were incubated overnight at 4° C. with 1.5 nmol of streptavidin (for D1 or Bcl-xL capture ligands) or 54H6 mAb in 1×PBS. Plates were washed 3× with wash buffer (1×PBS+0.1% (v/v) Tween-20) and blocked with 1×PBS+5% (w/v) BSA for two hours. For the D1 or Bcl-xL capture ligands, 100 μL of a 30 nM solution of the reagents was added to wells and incubated for 1 hour. This step was skipped for the 54H6 mAb capture ligand (already immobilized on the plate). After the capture ligand incubation, 100 μL of sample or standards were added in each well, and incubated for 1 hour at room temperature. Plates were washed, incubated with HRP-conjugated probe antibody (such as anti-HIS tag antibody) in sample buffer for 1 hour, washed, and incubated with TMB substrate (Thermo Scientific). Reactions were stopped after approximately 10 minutes with 2 M sulfuric acid, and the absorbance at 450 nm was measured via a plate reader (Molecular Devices). The ligand of interest, capture ligand, target protein, and probe ligand used in example ELISA assays performed are highlighted in the table below.
AMMP Assays. For the AMMP assays, 90 μL of each sample or standards was incubated with 30 μL of magnetic beads (12 μg of beads/mL) and fluorescein-labeled antibody (8 nM) in sample buffer for 1 hour. The experiment's run buffer was 1×PBS+1% (v/v) Tween-20+1% (v/v) heat-treated FBS (Invitrogen; FBS was heat treated for 15 minutes at 65° C. and filtered). BioScale Universal Detection Cartridges were used in performing all of the assays. The device was used per the manufacturer's instructions. The ligand of interest, capture ligand, target protein, and probe ligand used in example AMMP assays performed are highlighted in the table below.
Monovalent and Divalent Analysis. The data for both sets of target concentrations were simultaneously fit for Kd (in the Kd only fit) or Kd and Mo. The data was fitted to the equilibrium model using the lowest absolute deviation method, by varying either only Kd or both Kd and [L]0 simultaneously. The monovalent assay fitting was done by Excel Solver (GRG Non-Lin method) using a set of five initial values. The set of values which provided the lowest error after the fitting were chosen as the final values. For the divalent assays, the fitting was performed by MATLAB's fminsearch function and a set of 10 initial values for Kd1, Kd2, and [L]0. […] For the divalent reverse assay, an extra parameter, Cf, was also determined by fitting (FIG. 7 Reverse Assay).
Enzymatic Kd Calculation Assay. The Kd values of ligands of interest were determined using a protocol modified from Friguet et al., Journal of immunological methods, 77, 305-319 (1985). The samples were prepared and analyzed by ELISA assay in a similar process as described above. The OD450 for the standards and their concentration values were fit to a four parameter logistic curve (standard curve). The concentration of the free Bcl-xL in solution (responsible for the signal) for each sample was calculated using the standard curve, and converted into percent of Bcl-xL bound by ligand in solution.
(In general: An ELISA detects its analyte on a solid surface through an enzyme-linked reagent.)

`CC[C@H](C)[C@H](NC(=O)[C@H](C)NC(=O)[C@@H](NC(=O)[C@@H](N)CCSC)[C@@H](C)CC)C(=O)N[C@@H](CO)C(=O)N[C@H](C(=O)N[C@H](C(=O)N[C@@H](Cc1ccc(O)cc1)C(=O)N[C@@H](CC(N)=O)C(=O)N[C@@H](Cc1ccc(O)cc1)C(=O)N[C@@H](CCCCN)C(=O)N[C@@H](CCCCN)C(=O)N[C@@H](C)C(=O)N[C@@H](C)C(=O)N[C@@H](CC(=O)O)C(=O)N[C@@H](Cc1c[nH]cn1)C(=O)N[C@@H](Cc1ccc(O)cc1)C(=O)N[C@@H](C)C(=O)N[C@@H](CCSC)C(=O)N[C@H](C(=O)N[C@@H](CCCCN)C(=O)NCC(=O)N[C@@H](CO)C(=O)N[C@@H](CCCCNC(=O)CCCC[C@@H]1SC[C@@H]2NC(=O)N[C@@H]21)C(N)=O)[C@@H](C)O)[C@@H](C)CC)[C@@H](C)O` [D1] (H-MIAISTIYNYKKAADHYAMTKGSK(Biotin)-NH2): the association rate constant (kon) turned out to be 240000 M⁻¹ s⁻¹, the Kd was 8.5 ± 2 pM and the “Ratio of Fit [L]0 to Known [L]0” value is on record as 109% ± 7%.
In the same order, the values of `CC[C@H](C)[C@H](NC(=O)[C@@H](NC(=O)[C@@H](NC(=O)[C@@H](NC(=O)[C@H](CCC(=O)O)NC(=O)[C@@H](NC(=O)[C@@H](N)CCSC)[C@@H](C)CC)[C@@H](C)O)[C@@H](C)CC)[C@@H](C)O)C(=O)N[C@@H](Cc1ccc(O)cc1)C(=O)N[C@@H](CC(N)=O)C(=O)N[C@@H](Cc1ccc(O)cc1)C(=O)N[C@@H](CCCCN)C(=O)N[C@@H](CCCCN)C(=O)N[C@@H](C)C(=O)N[C@@H](C)C(=O)N[C@@H](CC(=O)O)C(=O)N[C@@H](Cc1c[nH]cn1)C(=O)N[C@@H](Cc1ccccc1)C(=O)N[C@@H](CO)C(=O)N[C@@H](CCSC)C(=O)N[C@@H](CO)C(=O)N[C@@H](CCSC)C(=O)NCC(=O)N[C@@H](CO)C(=O)N[C@@H](CCCCNC(=O)CCCC[C@@H]1SC[C@@H]2NC(=O)N[C@@H]21)C(N)=O` [E1] (H-MIETITIYNYKKAADHFSMSMGSK(Biotin)-NH2) are 310000 M⁻¹ s⁻¹, 39 ± 6 pM and 88% ± 10%.

A word on the kon: it is a measure of how fast the partners come together. For orientation: Kd means a measure of binding affinity in units of concentration.
